Target: T1, BRAF V600E (Homo sapiens, UniProt P15056, V600E)
T1 construct: endogenous C-terminal HiBiT fusion tag on BRAF V600E allele; endogenous in cells; host or cells: A375 clone 1F10 (CRISPR-Cas9 knock-in of the HiBiT tag; parental A375 from ATCC)
Experiment: BRAF HiBiT degradation assay, C-terminal HiBiT-tagged BRAF V600E A375 cells (clone 1F10), Nano-Glo HiBiT Lytic assay
Format: cell-based
Settings: for Dmax: A-375
Description: An A375 cell line expressing a homozygous V600E mutation was purchased from ATCC (Manassas, VA, USA). An A375 clone 1F10 cell line with an endogenous C-terminal HiBiT fusion tag on BRAF V600E allele was generated internally using CRISPR-Cas9 technology and cultured in DMEM, high glucose supplemented with 10% FBS and 1× GlutaMAX. A HCT-116 BRAF−/− cell line overexpressing the C-terminal HiBiT-tagged G466V, G469A, and D594G mutants were generated by lentiviral transduction, externally at Biosettia Inc (San Diego, CA, USA). The stably transfected cells were cultured in RPMI media supplemented with 10% FBS, 1× GlutaMAX, and 0.25 μg/ml puromycin. DMEM medium, RPMI 1640 medium, GlutaMAX, fetal bovine serum (FBS), and puromycin were purchased from Gibco (Grand Island, NY, USA). HCT-116 BRAF−/− cells were purchased from Horizon Discovery (Waterbeach, UK).
The C-terminal HiBiT tagged BRAF A375 cells (monoclonal cell line, cell clone 1F10) were seeded at a density of 10,000 cells/well in 30 μL media (DMEM, high glucose supplemented with 10% FBS and 1× GlutaMAX) in white opaque 384-well plates (Corning #3570) from column 1 to column 23. The wildtype A375 cells were seeded in column 24 at the same cell density in 30 μL media. Cells were incubated at 37° C. with 5% CO2 for 24 h.
Intermediate compound dilution series (5-point, ranging from 5 mM to 0.5 μM, 10-fold dilutions in DMSO) were prepared in a source plate (Beckman Coulter cat. no. 001-16128). Final compound dilution series (11-point, ranging from 1 μM to 0.01 nM, half-log dilutions in DMSO) were stamped into the assay plate (Corning #3570, column 1-11 and 12-22) using the Echo Acoustic Liquid Handler (Beckman Coulter). Each compound was plated in duplicate, and the total volume of compound DMSO solution was 60 nL/well (0.2% final DMSO concentration). DMSO was included in wells A23-L23 and A24-L24. The DMSO-treated HiBiT-tagged samples served as Negative Control (NC) and the DMSO-treated wildtype samples served as Background Control (BC) for the HiBiT assay.
HiBiT signal was measured by a Nano-Glo HiBiT Lytic assay (Promega cat. no. N3050). HiBiT lytic detection reagent (Nano-Glo HiBiT Lytic Buffer with 1:50 Nano-Glo HiBiT Lytic Substrate and 1:100 LgBiT Protein, 40 μL) was added using Bravo. The mixture was incubated at room temperature, in the dark, and with gentle shaking for 10 min. Luminesce units (LU) were read on an EnVision plate reader 2105 (Perkin Elmer).
Percent protein remaining and viability remaining per sample were calculated as follows: […]
% Protein remaining values were plotted as a function of compound concentration. XC50 (DC50) values were determined by fitting curves using the following equation:
For the HiBiT degradation assay, the key parameters reported include: • The dose of compound that produces 50% degradation (DC50 at 50%): • DC50 at 50%: the Fitted X value (Conc.) at Y=50 (response) • Observed Dmax (Obs. Dmax) is the percentage protein degraded at maximal compound effect relative to DMSO-treated control: […]

[1] = A375 (BRAF V600E), DC50 at 50%: fitted conc. at Y=50
[2] = A375 (BRAF V600E), percentage protein degraded at maximal compound effect relative to DMSO
[3] = A375 (BRAF V600E, Class 1), DC50 at 50% degradation
[4] = A375 (BRAF V600E, Class 1), observed Dmax, % protein degraded relative to DMSO control

T1 sequence (P15056 whole entry V600E, the tested form may be a part): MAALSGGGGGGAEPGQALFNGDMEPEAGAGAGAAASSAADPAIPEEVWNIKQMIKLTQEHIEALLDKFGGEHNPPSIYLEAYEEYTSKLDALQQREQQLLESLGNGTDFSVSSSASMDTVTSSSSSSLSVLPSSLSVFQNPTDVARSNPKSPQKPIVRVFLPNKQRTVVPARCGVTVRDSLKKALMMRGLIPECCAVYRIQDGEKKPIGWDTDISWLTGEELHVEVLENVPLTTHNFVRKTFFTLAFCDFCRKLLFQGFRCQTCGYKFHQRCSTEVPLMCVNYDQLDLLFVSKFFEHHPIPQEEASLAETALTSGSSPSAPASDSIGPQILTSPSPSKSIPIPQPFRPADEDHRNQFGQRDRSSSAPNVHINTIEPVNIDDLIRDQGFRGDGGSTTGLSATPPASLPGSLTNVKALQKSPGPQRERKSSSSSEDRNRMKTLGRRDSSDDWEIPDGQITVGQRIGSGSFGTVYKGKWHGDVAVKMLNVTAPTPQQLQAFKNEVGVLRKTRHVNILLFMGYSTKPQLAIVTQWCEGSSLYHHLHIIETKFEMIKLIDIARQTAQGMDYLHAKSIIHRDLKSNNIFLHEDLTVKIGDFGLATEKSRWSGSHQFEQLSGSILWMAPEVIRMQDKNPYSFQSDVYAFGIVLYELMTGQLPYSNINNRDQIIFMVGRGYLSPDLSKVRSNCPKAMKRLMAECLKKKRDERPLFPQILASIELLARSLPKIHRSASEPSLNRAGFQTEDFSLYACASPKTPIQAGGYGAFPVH

`CCCS(=O)(=O)Nc1cccc(-c2cn(-c3ccc(N4CCN(CC5CCN(c6ccc(C7CCC(=O)NC7=O)cn6)CC5)CC4)cc3)nc2-c2ccncc2)c1F` (racemic) [Compound 20, Rac-N-{3-[1-(4-{4-[(1-{5-[(3R)-2,6-dioxopiperidin-3-yl]pyridin-2-yl}piperidin-4-yl)methyl]piperazin-1-yl}phenyl)-3-(pyridin-4-yl)-1H-pyrazol-4-yl]-2-fluorophenyl}propane-1-sulfonamide] showed a DC50 [1] of 10 to 50 nM and a Dmax [2] greater than 70%.
For `CCCS(=O)(=O)Nc1cccc(-c2nc(C(C)(C)C)sc2-c2ccnc(N[C@H]3CC[C@H](CN4CCN(CC5CCN(c6ccc([C@@H]7CCC(=O)NC7=O)cc6)CC5)CC4)CC3)n2)c1F` [Compound 139, N-{3-[2-tert-butyl-5-(2-{[(1r,4r)-4-({4-[(1-{4-[(3S)-2,6-dioxopiperidin-3-yl]phenyl}piperidin-4-yl)methyl]piperazin-1-yl}methyl)cyclohexyl]amino}pyrimidin-4-yl)-1,3-thiazol-4-yl]-2-fluorophenyl}propane-1-sulfonamide], the DC50 [1] was 10 to 50 nM and the Dmax [2] was 30 to 70%.
In the case of `CCCS(=O)(=O)Nc1cccc(-c2nc(C3CCC4(CC3)CCN(CC3CCN(c5ccc(C6CCC(=O)NC6=O)cc5)CC3)CC4)sc2-c2ccnc(N)n2)c1F` (racemic) [Compound 256, Rac-N-{3-[5-(2-aminopyrimidin-4-yl)-2-{3-[(1-{4-[(3R)-2,6-dioxopiperidin-3-yl]phenyl}piperidin-4-yl)methyl]-3-azaspiro[5.5]undecan-9-yl}-1,3-thiazol-4-yl]-2-fluorophenyl}propane-1-sulfonamide], the DC50 [3] is reported as 50 to 500 nM and the Dmax [4] is reported as 30 to 70%.
For `CCCS(=O)(=O)Nc1cccc(-c2nc(C(C)(C)C)sc2-c2ccnc(NC3CC4(CCN(C[C@H]5CC[C@H](Oc6ccc(C7CCC(=O)NC7=O)cc6)CC5)CC4)C3)n2)c1F` (mixture of isomers) [Compound 130, N-[3-(2-tert-butyl-5-{2-[(7-{[(1r,4r)-4-{4-[(3RS)-2,6-dioxopiperidin-3-yl]phenoxy}cyclohexyl]methyl}-7-azaspiro[3.5]nonan-2-yl)amino]pyrimidin-4-yl}-1,3-thiazol-4-yl)-2-fluorophenyl]propane-1-sulfonamide], the DC50 [1] was greater than 500 nM and the Dmax [2] was 30 to 70%.
`CCCS(=O)(=O)Nc1cccc(-c2nc(C(C)(C)C)sc2-c2ccnc(NCC(C)(C)C3CCN(CC4CCN(c5ccc([C@H]6CCC(=O)NC6=O)cc5)CC4)CC3)n2)c1F` [Compound 144, N-[3-(2-tert-butyl-5-{2-[(2-{1-[(1-{4-[(3R)-2,6-dioxopiperidin-3-yl]phenyl}piperidin-4-yl)methyl]piperidin-4-yl}-2-methylpropyl)amino]pyrimidin-4-yl}-1,3-thiazol-4-yl)-2-fluorophenyl]propane-1-sulfonamide] showed a DC50 [1] of 50 to 500 nM and a Dmax [2] of 30 to 70%.
Work on `CCCS(=O)(=O)Nc1cccc(-c2nc(C(C)(C)C)sc2-c2ccnc(Nc3cnn(C4CCN(CC5CCN(c6ccc(C(=O)NC7CCC(=O)NC7=O)nc6)CC5)CC4)c3)n2)c1F` (racemic) [Compound 79, Rac-5-{4-[(4-{4-[(4-{2-tert-butyl-4-[2-fluoro-3-(propane-1-sulfonamido)phenyl]-1,3-thiazol-5-yl}pyrimidin-2-yl)amino]-1H-pyrazol-1-yl}piperidin-1-yl)methyl]piperidin-1-yl}-N-[(3R)-2,6-dioxopiperidin-3-yl]pyridine-2-carboxamide] yielded a DC50 [1] of less than 10 nM and a Dmax [2] of 30 to 70%.
`CCCS(=O)(=O)Nc1cccc(-c2nc(C3CCN(C(=O)C4CCN(CC5CCN(c6ccc(C7CCC(=O)NC7=O)cc6)CC5)CC4)CC3)sc2-c2ccnc(N)n2)c1F` (racemic) [Compound 228, Rac-N-{3-[5-(2-aminopyrimidin-4-yl)-2-(1-{1-[(1-{4-[(3R)-2,6-dioxopiperidin-3-yl]phenyl}piperidin-4-yl)methyl]piperidine-4-carbonyl}piperidin-4-yl)-1,3-thiazol-4-yl]-2-fluorophenyl}propane-1-sulfonamide] was tested, and the DC50 [1] was less than 10 nM and the Dmax [2] was greater than 70%.
`CCCS(=O)(=O)Nc1cccc(-c2nc(C)sc2-c2ccnc(Nc3ccc(C4CCN(CC5CCN(c6ccc([C@H]7CCC(=O)NC7=O)cc6)CC5)CC4)cc3)n2)c1F` [Compound 63, N-[3-(5-{2-[(4-{1-[(1-{4-[(3R)-2,6-dioxopiperidin-3-yl]phenyl}piperidin-4-yl)methyl]piperidin-4-yl}phenyl)amino]pyrimidin-4-yl}-2-methyl-1,3-thiazol-4-yl)-2-fluorophenyl]propane-1-sulfonamide] was tested, and the DC50 [1] was less than 10 nM and the Dmax [2] was greater than 70%.
`CCCS(=O)(=O)Nc1cccc(-c2cn(-c3ccc(N4CCN(CC5(C)CCN(c6ccc(C7CCC(=O)NC7=O)cn6)CC5)CC4)cc3)nc2-c2ccncc2)c1F` (racemic) [Compound 17, Rac-N-{3-[1-(4-{4-[(1-{5-[(3R)-2,6-dioxopiperidin-3-yl]pyridin-2-yl}-4-methylpiperidin-4-yl)methyl]piperazin-1-yl}phenyl)-3-(pyridin-4-yl)-1H-pyrazol-4-yl]-2-fluorophenyl}propane-1-sulfonamide] gave a DC50 [1] of 50 to 500 nM and a Dmax [2] of 30 to 70%.
`O=C1CC[C@H](c2ccc(N3CCC(CN4CCN(c5cnc(-n6cc(-c7cc(F)cc(NS(=O)(=O)N8CCCC8)c7F)c(-c7ccncc7)n6)nc5)CC4)CC3)cc2)C(=O)N1` [Compound 342, N-{3-[1-(5-{4-[(1-{4-[(3R)-2,6-dioxopiperidin-3-yl]phenyl}piperidin-4-yl)methyl]piperazin-1-yl}pyrimidin-2-yl)-3-(pyridin-4-yl)-1H-pyrazol-4-yl]-2,5-difluorophenyl}pyrrolidine-1-sulfonamide] showed a DC50 [3] of less than 10 nM and a Dmax [4] greater than 70%.
`CCCS(=O)(=O)Nc1cccc(-c2nc(C(C)(C)C)sc2-c2ccnc(Nc3ccc(N4CCN(C(=O)[C@H]5CC[C@H](Oc6ccc(C7CCC(=O)NC7=O)cn6)CC5)CC4)c(F)c3)n2)c1F` (mixture of isomers) [Compound 50, N-[3-(2-tert-butyl-5-{2-[(3-fluoro-4-{4-[(1r,4r)-4-({5-[(3RS)-2,6-dioxopiperidin-3-yl]pyridin-2-yl}oxy)cyclohexanecarbonyl]piperazin-1-yl}phenyl)amino]pyrimidin-4-yl}-1,3-thiazol-4-yl)-2-fluorophenyl]propane-1-sulfonamide] gave a DC50 [1] of 10 to 50 nM and a Dmax [2] greater than 70%.
In the case of `CCCS(=O)(=O)Nc1cccc(-c2nc(C3CCC4(CC3)CCN(C(=O)CC3CCN(C5CCN(c6ccc7c(c6)C(=O)N(C6CCC(=O)NC6=O)C7=O)CC5)CC3)CC4)sc2-c2ccnc(N)n2)c1F` (racemic) [Compound 248, Rac-N-{3-[5-(2-aminopyrimidin-4-yl)-2-{3-[2-(1′-{2-[(3R)-2,6-dioxopiperidin-3-yl]-1,3-dioxo-2,3-dihydro-1H-isoindol-5-yl}-[1,4′-bipiperidin]-4-yl)acetyl]-3-azaspiro[5.5]undecan-9-yl}-1,3-thiazol-4-yl]-2-fluorophenyl}propane-1-sulfonamide], the DC50 [3] is reported as less than 10 nM and the Dmax [4] is reported as greater than 70%.
`CCN(C)S(=O)(=O)Nc1cccc(-c2nc(C)sc2-c2ccnc(Nc3ccc(N4CCN(CC5(C)CCN(c6ccc(C7CCC(=O)NC7=O)cn6)CC5)CC4)cn3)n2)c1F` (racemic) [Compound 34, Rac-(3S)-3-{6-[4-({4-[6-({4-[4-(3-{[ethyl(methyl)sulfamoyl]amino}-2-fluorophenyl)-2-methyl-1,3-thiazol-5-yl]pyrimidin-2-yl}amino)pyridin-3-yl]piperazin-1-yl}methyl)-4-methylpiperidin-1-yl]pyridin-3-yl}piperidine-2,6-dione] showed a DC50 [1] of 10 to 50 nM and a Dmax [2] greater than 70%.

From US20260317324A1, “BIFUNCTIONAL COMPOUNDS FOR DEGRADING BRAF VIA UBIQUITIN PROTEOSOME PATHWAY” (Nurix Therapeutics, Inc., priority 2023, published 2026)
